The melting point is the temperature, or range, at which the solid turns liquid.

Read-outs that look alike come from different tables or passages of the source.

For one series, the target named is T1, TANK-2 enzyme (Homo sapiens, UniProt Q9H2K2).
T1 construct: made in house
T1 sequence (Q9H2K2 1-1166): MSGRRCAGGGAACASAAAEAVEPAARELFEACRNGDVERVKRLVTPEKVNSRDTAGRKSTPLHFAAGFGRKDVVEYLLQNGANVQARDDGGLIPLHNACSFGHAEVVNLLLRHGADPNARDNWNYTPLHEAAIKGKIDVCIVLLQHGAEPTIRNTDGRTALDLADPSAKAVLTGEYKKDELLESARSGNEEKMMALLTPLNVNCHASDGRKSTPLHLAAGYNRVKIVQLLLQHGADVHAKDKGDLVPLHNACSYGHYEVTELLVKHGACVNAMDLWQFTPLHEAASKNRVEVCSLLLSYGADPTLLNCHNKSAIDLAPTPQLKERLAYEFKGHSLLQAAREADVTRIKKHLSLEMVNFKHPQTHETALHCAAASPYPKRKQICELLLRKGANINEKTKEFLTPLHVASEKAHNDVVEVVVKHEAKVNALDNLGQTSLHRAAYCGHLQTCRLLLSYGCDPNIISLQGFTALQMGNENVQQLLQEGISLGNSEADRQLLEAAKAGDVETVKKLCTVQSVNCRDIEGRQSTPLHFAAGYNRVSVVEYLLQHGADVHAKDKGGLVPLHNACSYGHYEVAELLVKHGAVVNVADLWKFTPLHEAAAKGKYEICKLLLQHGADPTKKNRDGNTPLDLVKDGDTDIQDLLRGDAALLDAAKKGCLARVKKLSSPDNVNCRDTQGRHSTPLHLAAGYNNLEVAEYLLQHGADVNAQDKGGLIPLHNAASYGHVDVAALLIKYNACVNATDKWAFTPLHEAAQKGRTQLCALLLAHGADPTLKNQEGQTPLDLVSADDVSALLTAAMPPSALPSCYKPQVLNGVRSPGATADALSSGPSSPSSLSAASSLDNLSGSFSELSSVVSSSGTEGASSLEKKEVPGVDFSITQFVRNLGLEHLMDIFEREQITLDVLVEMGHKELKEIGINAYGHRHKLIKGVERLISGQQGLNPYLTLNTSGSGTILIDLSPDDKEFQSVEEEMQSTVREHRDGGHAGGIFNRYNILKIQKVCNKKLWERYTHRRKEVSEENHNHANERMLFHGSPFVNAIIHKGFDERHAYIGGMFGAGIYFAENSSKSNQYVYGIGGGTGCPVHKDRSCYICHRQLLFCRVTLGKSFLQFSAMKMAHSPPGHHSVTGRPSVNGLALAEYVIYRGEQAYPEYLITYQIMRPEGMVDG
The series can be described thus: In vitro scintillation proximity assay (SPA) for TANK-2 inhibitory activity. It counts as biochemical. How it is done: In Vitro Scintillation Proximity Assay (SPA) for TANK-2 Inhibitory Activity
Compounds of the present invention were tested in an in vitro assay based on SPA technology with Ni Flash plates (96 or 384 well).
In principle, the assay relies upon SPA technology for the detection of auto-poly(ADP-ribosyl)ation of TANK-2 protein using [^3H]-nicotinamide adenine dinucleotide ([^3H]-NAD^+) as ADP-ribosyl donor.
A stock solution of [^3H]-NAD^+/NAD was made by adding 64.6 μl of [^3H]-NAD^+ (0.1 mCi/ml, supplier: Perkin Elmer) and 46.7 μl NAD-stock (10.7 mM, stored at −20° C., supplier Roche) to 1888.7 μl assay buffer (60 mM Tris/HCl, pH 7.4; 0.9 mM DTT; 6 mM MgCl2). The TANK-2 enzyme was produced as described in EP1238063. 60 μl of assay buffer, together with 1 μl of compound in DMSO, 20 μl of [^3H]-NAD^+/NAD and 20 μl of TANK-2 enzyme (final concentration 6 μg/ml) was added per well into a 96-well Ni-coated flash plate (Perkin Elmer). After incubation of the mixture for 120 min. at room temperature, the reaction was terminated by adding 60 μl of stopsolution (42.6 mg NAD in 6 ml H2O). The plates were covered with a plate sealer and placed in a TopCountNXT™ (Packard) for scintillation counting. Values were expressed as counts per minute (cpm). For each experiment, controls (containing TANK-2 enzyme and DMSO without compound), a blank incubation (containing DMSO but no TANK-2 enzyme or compound) and samples (containing TANK-2 enzyme and compound dissolved in DMSO) were run in parallel. All compounds tested were dissolved and eventually further diluted in DMSO. In first instance, compounds were tested at a concentration of 10^−5M. […] In each test, the blank value was subtracted from both the control and the sample values. The control sample represented maximal TANK-2 enzyme activity. For each sample, the amount of cpm was expressed as a percentage of the mean cpm value of the controls. When appropriate, IC50-values (concentration of the drug, needed to reduce the TANK-2 enzyme activity to 50% of the control) were computed using linear interpolation between the experimental points just above and below the 50% level. Herein the effects of test compounds are expressed as pIC50 (the negative log value of the IC50-value). As reference compounds, 3-aminobenzamide and 4-amino-1,8-naphthalimide were included to validate the SPA assay. Herein the assay was described using 96-well plates. In the assay using 384-well plates the same final concentrations were used and volumes were adapted.
On the technique in general: In a scintillation proximity assay essentially only radioactivity close to the scintillant gives light.

Where [1] appears, read: auto-poly(ADP-ribosyl)ation, [3H]-NAD+, 96-well results if available, otherwise 384-well, read-out: in vitro SPA assay TANK-2 pIC50 (converted).

For `O=C(c1ccc(F)cc1)C1CCN(CCCn2c(=O)[nH]c(=O)c3ccccc32)CC1` [Compound 11, 1-[3-[4-(4-fluorobenzoyl)-1-piperidinyl]propyl]-2,4-(1H,3H)-quinazolinedione], the IC50 on TANK-2 enzyme (setting [1]) is over 10 µM.
`O=c1[nH]c(=O)n(C2CCNCC2)c2ccccc12` [Compound 1] came in with a melting point of 253.7 °C. Moreover, the IC50 on TANK-2 enzyme (setting [1]) was over 10 µM.
Turning to `O=c1[nH]c(=O)n(CCN2CCC(O)(c3ccc(Cl)cc3)CC2)c2ccccc12` [Compound 6], the IC50 on TANK-2 enzyme (setting [1]) was 1.38 µM.
For the molecule `O=c1[nH]c(=O)n(C2CCN(CCCn3c(=O)[nH]c4ccccc43)CC2)c2ccccc12` [Compound 5], the IC50 on TANK-2 enzyme (setting [1]) was 7.57 µM.
Still for that read-out and setting: in the case of `O=C(c1ccc(F)cc1)C1CCN(CCn2c(=O)[nH]c(=O)c3ccccc32)CC1` [Compound 10, 1-[2-[4-(4-fluorobenzoyl)-1-piperidinyl]ethyl]-2,4-(1H,3H)-quinazolinedione] it was 7.19 µM.
Still for that read-out and setting: in the case of `O=c1[nH]c(=O)n(C2CCN(CC(O)C3CCc4ccccc4O3)CC2)c2ccccc12` (stereo in doubt) [Compound 9, 1-[1-[(2S)-2-[(2R)-3,4-dihydro-2H-1-benzopyran-2-yl]-2-hydroxyethyl]-4-piperidinyl]-2,4(1H,3H)-quinazolinedione] it was over 10 µM.
As to `O=C(CCCN1CCC(n2c(=O)[nH]c(=O)c3ccccc32)CC1)c1ccc(F)cc1` [Compound 2], the melting point stood at 195 °C. Also, the IC50 at TANK-2 enzyme (setting [1]) is over 10 µM.
For the molecule `O=c1[nH]c(=O)n(CCCN2CCC(c3c[nH]c4ccccc34)CC2)c2ccccc12` [Compound 3], the melting point is 216.8 °C. Besides, the IC50 against TANK-2 enzyme is over 10 µM.
On to `O=c1[nH]c(=O)n(CCCN2CCC(O)(c3ccc(Cl)cc3)CC2)c2ccccc12` [Compound 7], for which the IC50 on TANK-2 enzyme (setting [1]) is over 10 µM.

Source of the values: patent US9255080B2, “Quinazolinedione derivatives as PARP inhibitors” (Janssen Pharmaceutica NV, priority 2004, dated 2016).
